# Experimental data taken from US20080004247A1, “Combinations of Statins with Bronchodilators” (ASTRAZENECA AB, priority 2004, published 2008).
# Assay: Meta-analysis of 2 one-year clinical trials: incidence of severe COPD exacerbations with and without concomitant statins
# Format: in vivo, patients
# Details: severe exacerbations = need for a treatment course of oral corticosteroids
# Protocol: A meta-analysis was performed from 2 one-year clinical trials in moderate to severe COPD. Patients treated with budesonide (Pulmicort®), formoterol (Oxis®), formoterol+budesonide (Symbicort®) or Placebo were analysed with and without statins as concomitant medication. The incidence of severe exacerbations, defined as need for a treatment course of oral corticosteroids, was determined.
# [1] = PLUS STATINS as concomitant medication
SMILES,Incidence of exacerbations per year (EXCLUDING STATINS),Incidence of exacerbations per year [1]
"CCCC1O[C@@H]2C[C@H]3[C@@H]4CCC5=CC(=O)C=C[C@]5(C)[C@H]4[C@@H](O)C[C@]3(C)[C@]2(C(=O)CO)O1 (stereo partly shown) [Budesonide, budesonide]",0.9 (n = 379) per year,0.7 (n = 8) per year
"COc1ccc(CC(C)NCC(O)c2ccc(O)c(NC=O)c2)cc1 (stereo not shown) [Formoterol, formoterol]",1.0 (n = 388) per year,0.4 (n = 9) per year
